Experimental data from EP0394553A2, “Use of fluorine containing pyridone carboxylic acid derivatives for preparing a medicament for the treatment of HIV infections” (DAIICHI PHARMACEUTICAL CO., LTD., priority 1989, dated 1990).

Legend:
[1] = in vivo; settings: mouse
[2] = test system: CEM cells; assay: Cytotoxicity in uninfected CEM cells (trypan blue staining); settings: at concentrations not exceeding 10 mcg/ml
Procedure: Human T cell-derived, T4 antigen-positive CEM cells (provided by the Institut Pasteur, France) were used as host cells of HIV. Cell culture was carried out in a carbon dioxide-containing atmosphere in an incubator maintained at 37°C according to a conventional method [cf. […] The culture supernatant (5×10⁶ TCID₅₀/ml) obtained by subjecting CEM cells to HIV (LAV 1) infection and stored at -70°C was used as the HIV source.
The cell culture medium (10 ml) placed in a plastic culture flask (25 cm²) was inoculated with CEM cells to a cell density of 2.5×10⁵ cells/ml and incubation was performed for 3 days. Then, the culture was transferred to a 15-ml plastic centrifuge tube and centrifuged at 1,000 revolutions per minute for 5 minutes for medium removal. A fresh portion of the medium was added to the cells, the cell density being adjusted to 5.0×10⁵ cells/ml. The following mixture (1.0 ml) containing the cell suspension prepared in the above manner was incubated in a 24-well plastic culture plate for 4 days:
The cells in each well were then suspended uniformly in the medium by pipetting and a 0.5-ml portion of the suspension was separated.
A fresh 2-ml portion of the test substance-free medium was added to the remaining cell suspension (0.5 ml) and, after a further 3-day incubation, a cell suspension was produced in the same manner and a 0.5-ml portion thereof was removed.
The cell suspensions collected in the above manner were subjected to viable cell count and viable cell percentage determinations by trypan blue staining.

## CC1COc2c(N3CCN(C)CC3)c(F)cc3c(=O)c(C(=O)O)cn1c23 (racemic) [OFLX, (±)-9-fluoro-3-methyl-10-(4-methyl-1-piperazinyl)-7-oxo-2,3-dihydro-7H-pyrido[1,2,3-de][1,4]benzoxazine-6-carboxylic acid]
[1]; po
  LD50: 5450 mg/kg
[2]
  cytotoxicity: no cytotoxicity

## C[C@H]1COc2c(N3CCN(C)CC3)c(F)cc3c(=O)c(C(=O)O)cn1c23 [DR-3355, (-)-(S)-9-fluoro-2,3-dihydro-3-methyl-10-(4-methyl-1-piperazinyl)-7-oxo-7H-pyrido[1,2,3-de][1,4]benzoxazine-6-carboxylic acid hemihydrate]
[1]; iv
  LD50: ≥ 200 mg/kg
[2]
  cytotoxicity: no cytotoxicity

## CCn1cc(C(=O)O)c(=O)c2cc(F)c(N3CCNCC3)cc21 [NFLX, 1-ethyl-6-fluoro-1,4-dihydro-4-oxo-7-(1-piperazinyl)-3-quinolinecarboxylic acid]
[1]; po
  LD50: ≥ 4000 mg/kg
[2]
  cytotoxicity: no cytotoxicity
